This note sets out measurements from US8901315B2, “Thienopyrazole derivative having PDE7 inhibitory activity” (Daiichi Sankyo Company, Limited, priority 2004, dated 2014).

Test [1] concerns the target PDE 4 (phosphodiesterase IV). Nature of the test: PDE 4 inhibiting effect (3H-cAMP hydrolysis, PDE 4 active fraction from Balb/c mouse liver). The note with it: PDE 4 fraction from Balb/c mice liver, 0.064 μM cAMP, 2 hours at 25° C.; read-out: PDE4 IC50. It counts as biochemical. The procedure, abridged:
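Activity was measured as 3H-cAMP hydrolysis, with Sephadex-QAE added after the reaction. The enzyme was a PDE4-active fraction from 12-week male Balb/c mouse liver, taken from the ultracentrifuged soluble fraction by DEAE sepharose chromatography (0.05-1 M sodium acetate gradient, pH 6.5 buffer).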

Test [2] deals with PDE 7 (phosphodiesterase VII) (Homo sapiens (Human), UniProt Q13946). Put plainly: PDE 7 inhibiting effect (3H-cAMP hydrolysis, PDE 7 active fraction from MOLT-4 cells). It counts as biochemical. The note with it: PDE 7 fraction from MOLT-4 cells, 0.064 μM cAMP, 10 μM rolipram, 2 hours at 25° C.; read-out: PDE7 IC50. The procedure, abridged: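 ³H-cAMP hydrolysis by a PDE7-active fraction was followed, and the reaction was worked up with a Sephadex-QAE suspension (10 mM HEPES-Na, pH 7.0). Enzyme came from MOLT-4 cell soluble extract (pH 7.5 Tris buffer, 100,000×G supernatant), fractionated by HiTrap Q anion exchange with a 0–0.8 M NaCl gradient.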

Each structure is given as a SMILES string. Where a name gives a salt, the structure may show the parent alone.

Sequence of PDE 7 (phosphodiesterase VII) (Q13946 whole entry): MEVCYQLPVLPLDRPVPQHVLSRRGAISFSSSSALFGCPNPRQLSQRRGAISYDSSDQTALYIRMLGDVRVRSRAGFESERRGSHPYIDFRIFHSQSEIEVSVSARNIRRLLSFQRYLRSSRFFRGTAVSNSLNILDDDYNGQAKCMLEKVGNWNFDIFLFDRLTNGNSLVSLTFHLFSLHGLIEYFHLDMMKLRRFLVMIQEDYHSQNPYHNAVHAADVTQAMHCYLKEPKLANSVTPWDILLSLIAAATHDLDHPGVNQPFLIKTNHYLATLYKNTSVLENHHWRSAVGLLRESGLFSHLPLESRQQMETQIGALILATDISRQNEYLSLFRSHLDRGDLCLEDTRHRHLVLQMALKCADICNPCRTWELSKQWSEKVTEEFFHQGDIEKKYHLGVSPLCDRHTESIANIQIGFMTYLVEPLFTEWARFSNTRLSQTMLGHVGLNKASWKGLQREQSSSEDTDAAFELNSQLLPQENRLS

Turning to `Cc1nn(C2CCCCC2)c2sc(C(=O)N[C@H]3CC[C@H](C(=O)N(C)C)C3)cc12` [Example 230, 1-Cyclohexyl-N-{(1S,3S)-3-[(dimethylamino)carbonyl]cyclopentyl}-3-methyl-1H-thieno[2,3-c]pyrazole-5-carboxamide HCl salt], the values for the IC50 in test [1] and in test [2] were 7000 nM and 23 nM, respectively.
With `CCN1CCN([C@H]2CC[C@H](NC(=O)c3cc4c(C)nn(C5CCOCC5)c4s3)CC2)CC1=O` [Example 436, N-[trans-4-(4-Ethyl-3-oxo-1-piperazinyl)cyclohexyl]-3-methyl-1-tetrahydro-2H-pyran-4-yl-1H-thieno[2,3-c]pyrazole-5-carboxamide], the values for the IC50 in test [1] and in test [2] were 7200 nM and 30 nM, respectively.
The corresponding values for `Cc1nn(C2CCCCC2)c2sc(C(=O)Nc3ccc(N4CC[C@@H](O)C4)cc3)cc12` [Example 262, 1-Cyclohexyl-N-{4-[(3R)-3-hydroxypyrrolidinyl]phenyl}-3-methyl-1H-thieno[2,3-c]pyrazole-5-carboxamide] are 3800 nM and 28 nM.
Turning to `CC(=O)N1CCN(C[C@H]2CC[C@H](NC(=O)c3cc4c(C)nn(C5CCOCC5)c4s3)CC2)CC1` [Example 360, N-{trans-4-[(4-Acetyl-1-piperazinyl)methyl]cyclohexyl}-3-methyl-1-tetrahydro-2H-pyran-4-yl-1H-thieno[2,3-c]pyrazole-5-carboxamide], the values for the IC50 in test [1] and in test [2] were 7900 nM and 57 nM, respectively.
The corresponding values for `Cc1nn(C2CCCCC2)c2sc(C(=O)NC3CCN(C(=O)N(C)C)CC3)cc12` [Example 235, 1-Cyclohexyl-N-{1-[(dimethylamino)carbonyl]-4-piperidinyl}-3-methyl-1H-thieno[2,3-c]pyrazole-5-carboxamide] are 2800 nM and 17 nM.
The corresponding values for `CC(=O)n1ccc2cc(NC(=O)c3cc4c(C)nn(C5CCCCC5)c4s3)ccc21` [Example 60, N-(1-Acetyl-1H-indol-5-yl)-1-cyclohexyl-3-methyl-1H-thieno[2,3-c]pyrazole-5-carboxamide] are 6500 nM and 65 nM.
`COc1cc(NC(=O)c2cc3c(C)nn(C4CCCCCC4)c3s2)ccc1NC(C)=O` [Example 115, N-[4-(Acetylamino)-3-methoxyphenyl]-1-cycloheptyl-3-methyl-1H-thieno[2,3-c]pyrazole-5-carboxamide]: the results for the IC50 in test [1] and in test [2] were 1500 nM and 40 nM, respectively.
